# Data reported in ChEMBL document CHEMBL1156840, “Design, synthesis and biological evaluation of new 2,3-diarylquinoline derivatives as selective cyclooxygenase-2 inhibitors” (Bioorg Med Chem, 2010).
# Molecular target: T1, Prostaglandin G/H synthase 1 (Ovis aries, UniProt P05979)
# T1 sequence (P05979 whole entry): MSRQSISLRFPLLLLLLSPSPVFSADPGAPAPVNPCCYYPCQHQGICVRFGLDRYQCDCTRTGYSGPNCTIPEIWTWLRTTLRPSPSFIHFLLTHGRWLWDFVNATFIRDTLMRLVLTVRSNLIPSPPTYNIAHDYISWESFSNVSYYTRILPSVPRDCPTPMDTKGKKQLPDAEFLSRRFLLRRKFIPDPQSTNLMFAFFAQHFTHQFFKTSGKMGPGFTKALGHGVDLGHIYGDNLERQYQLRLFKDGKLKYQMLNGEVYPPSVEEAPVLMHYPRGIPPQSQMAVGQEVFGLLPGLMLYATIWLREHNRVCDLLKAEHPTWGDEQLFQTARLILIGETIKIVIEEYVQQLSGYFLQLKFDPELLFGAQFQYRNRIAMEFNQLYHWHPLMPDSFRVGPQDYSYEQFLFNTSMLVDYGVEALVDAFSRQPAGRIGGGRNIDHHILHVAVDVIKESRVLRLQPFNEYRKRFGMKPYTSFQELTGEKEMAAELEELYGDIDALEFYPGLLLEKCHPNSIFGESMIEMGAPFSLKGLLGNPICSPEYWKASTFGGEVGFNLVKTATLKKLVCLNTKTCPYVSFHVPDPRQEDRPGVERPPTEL
# Description: Inhibition of ovine COX1 by enzyme chemiluminescent enzyme assay
row,IC50 [µM],Compound
1,48.1,CS(=O)(=O)c1ccc(-c2nc3ccccc3c(C(=O)O)c2-c2ccccc2)cc1
2,33.5,CS(=O)(=O)c1ccc(-c2nc3ccccc3cc2-c2ccccc2)cc1
3,13.3,Cc1c(-c2ccccc2)c(-c2ccc(S(C)(=O)=O)cc2)nc2ccccc12
4,14.4,CS(=O)(=O)c1ccc(-c2nc3ccccc3c(N)c2-c2ccccc2)cc1
5,10.2,CS(=O)(=O)c1ccc(-c2nc3ccccc3c(-c3ccccc3)c2-c2ccccc2)cc1
